Assays:
[1] = test system: double helical oligonucleotide d(ATAT)2; test: DNA binding and cleaving mechanism with oligonucleotide (LC-mass); settings: 1:1, phosphate buffer pH 6.0, in the dark for 2.0 h
Experimental: A double helical oligonucleotide d(ATAT)2 was prepared and added to a phosphate buffer solution (pH = 6.0) containing complex 1(1:1). The solution was kept in the dark for 2.0 h. An intermediate was detected, at a yield of 57%, with a signal at 650.1 for (M + H^+) as analyzed by an electron spray ionization detector in LC-mass chromatogram. Then, the solution was irradiated with 350 nm-UV light for 2.0 h at room temperature. A product was detected with a signal at 456.1 for (M + H^+). […] Then an intramolecular cyclization took place to remove the DMSO and to form a covalent bond between the N-7 nitrogen atom and the platinum in complex 1, resulting in the oligonucleotide cleavage.

[2] = test system: supercoiled circular φX174 RFI DNA; test: Single-strand DNA cleavage of supercoiled circular DNA under 350 nm UV irradiation (agarose gel); type: biochemical; settings: in the dark
[3] = test system: 2'-deoxyguanosine; test: Binding and cyclization reaction with 2'-deoxyguanosine (LC-mass)
Experimental: As a comparison, a reaction involving 2'-deoxyguanosine and complex 1 was carried out. Complex 1 bound to the C-2 amino on a guanine to form a Pt-N covalent bond. […] As a result, cleavage at a guanine site required assistance from an external base (e.g., piperidine). In another experiment, an excess of complex 1 was added to a 2'-deoxyguanosine solution, followed by piperidine treatment. An intermediate was detected, at a yield of 42%, with a signal at 1063.9 for (M + H^+) as analyzed by an electron spray ionization detector in LC-mass chromatogram. The intermediate was able to give a cyclization product, at a yield of 80%, with a signal at 792.0 for (M + H^+) upon 350-nm UV light irradiation, but not in the dark. The scheme below depicts the just-described reaction: [drawing 5]

[4] = test system: 160-bp dsDNA fragment was prepared from the 501―660 fragment of pBR322 DNA; test: Site-specific DNA cleavage of 5'-32P-labeled 160-bp dsDNA fragment (polyacrylamide/urea gel, autoradiogram); type: biochemical; settings: complex 20―100 µM, 350-nm UV 2.0 h
Experimental: A 160-bp dsDNA fragment was prepared from the 501―660 fragment of pBR322 DNA. It was amplified by the polymerase chain reaction (Bailly & Waring (1995) J. Am. Chem. Soc. 117:7311; Bailly et al. (1993) J. Am Chem. Soc. 115: 3784; and Sayers & Waring (1993) Biochemistry 32: 9094), and labeled at the 5'-terminus with γ-[^32P]-ATP and T4 polynucleotide kinase. A reaction mixture containing a 5'-terminus labeled ^32P-DNA solution, a phosphate buffer (0-10 M, pH 6.0), and complex 1 (20―100 µM) in a Pyrex vial was preincubated at 37°C for 30 min. The reaction mixture was irradiated with 350-nm UV light under aerobic conditions for 2.0 h at room temperature. The bound metal complexes on DNA fragments were removed by using 0.30 N NaCN (pH = 11) at 37°C for 8.0 h (Schwartz et al. (1990) J. Am. Chem. Soc. 112: 3673; and Zou et al. (1994) Biochemistry 33: 5404). The reaction mixture was then quenched with either a gel-loading buffer or 95% ethanol. […] The samples and the Maxam-Gilbert markers were analyzed using 10% polyacrylamide/8.0 M urea gel. […] Quantitation of relative intensities of DNA fragments was performed using a Microtek scanner and NIH 1.60 image program.
The detected DNA fragments were compared with Maxam-Gilbert markers on an autoradiogram, and quantitated by a computer-assisted program.

[5] = test system: supercoiled circular φX174 RFI DNA; test: Single-strand DNA cleavage of supercoiled circular DNA under 350 nm UV irradiation (agarose gel); type: biochemical; settings: for (% form I) / (% form II) / (% form II)/ (% form I) / DNA forms observed on gel: 350 nm UV 2.0 h
Experimental: Cleavage at various pH's: A reaction mixture (10 µL) containing supercoiled circular φX174 RFI DNA stock solution (50 µM/base pair), complex 1 (5.0 µM), and a phosphate buffer (0.10 M, pH 5.0, 6.0, 7.0, and 8.0) in a Pyrex vial was preincubated at 37°C. The reaction mixture was then irradiated with 350 nm UV light (32-W) for 2.0 h at room temperature. After adding a gel-loading buffer (025% bomophenol blue, 0.25% xylene cyanol, and 30% glycerol), the reaction mixture was loaded on a 1% agarose gel, followed by ethidium bromide staining. The gel was visualized by a 312-nm UV transilluminator and photographed by a FB-PDC-34 camera. Supercoiled circular DNA and cleaved DNA were clearly seen from the gel.
Cleavage at various complex concentrations: A reaction mixtures (10 µL) containing supercoiled circular φX174 RFI DNA stock solution (50 µM/base pair), complex 1 (0.050―100 µM), and a phosphate buffer (0.10 M, pH 6.0) in a Pyrex vial was preincubated at 37°C. The mixture was irradiated with 350 nm UV light (32-W) for 2.0 h at room temperature. After adding a gel-loading buffer (0.25% bromophenol blue, 0.25% xylene cyanol, and 30% glycerol), the reaction mixture was loaded on a 1% agarose gel, followed by ethidium bromide staining. The gel was visualized by a 312-nm UV transilluminator and photographed by a FB-PDC-34 camera. Supercoiled circular DNA (form I) and cleaved DNA (form II) were clearly seen from the gel.

Question: Which “yield of intermediate (complex bound to adenine)” value [1] does the source give for `C[S+](C)(=O)[Pt-2]1([Cl])[O][n+]2ccccc2[S]1` (centres unmarked) [complex 1, PtCl(DMSO)[η^2-C5H4SN(O)]] here?
Answer: 57%

Question: What about the “(% form I)” value ([2]; complex 500 µM, pH 6.0) of the same compound?
Answer: 93%

Question: And the “(% form II)” value ([2]; complex 500 µM, pH 6.0)?
Answer: 7.0%

Question: What about the “(% form II)/ (% form I)” value ([2]; complex 500 µM, pH 6.0) of the same compound?
Answer: 0.070

Question: And the “cleavage of single-strand DNA” value [2]?
Answer: did not occur

Question: And the “yield of intermediate (complex bound to guanine)” value ([3]; excess of complex, followed by piperidine treatment)?
Answer: 42%

Question: What about the “yield of cyclization product from intermediate” value ([3]; upon 350-nm UV light irradiation) of the same compound?
Answer: 80%

Question: And the “site of DNA cleavage” value ([4]; with hot piperidine treatment)?
Answer: cleaved DNA at purine residues

Question: What about the “site of DNA cleavage” value ([4]; without piperidine treatment) of the same compound?
Answer: at adenine residues

Question: What about the “(% form I)” value ([5]; complex 1.0 µM, pH 6.0) of the same compound?
Answer: 37%

Question: What about the “(% form II)” value ([5]; complex 1.0 µM, pH 6.0) of the same compound?
Answer: 63%

Question: And the “(% form II)/ (% form I)” value ([5]; complex 1.0 µM, pH 6.0)?
Answer: 1.7

Question: What about the “(% form I)” value ([5]; complex 2.5 µM, pH 6.0) of the same compound?
Answer: 20%

Question: And the “(% form II)” value ([5]; complex 2.5 µM, pH 6.0)?
Answer: 80%

Question: And the “(% form II)/ (% form I)” value ([5]; complex 2.5 µM, pH 6.0)?
Answer: 4.0

Question: What about the “(% form I)” value ([5]; complex 5.0 µM, pH 6.0) of the same compound?
Answer: 7.1%

Question: What about the “(% form II)” value ([5]; complex 5.0 µM, pH 6.0) of the same compound?
Answer: 93%

Question: And the “(% form II)/ (% form I)” value ([5]; complex 5.0 µM, pH 6.0)?
Answer: 13

Question: And the “DNA forms observed on gel” value ([5]; complex 5.0 µM, pH 5.0)?
Answer: only cleaved DNA was observed

Question: What about the “DNA forms observed on gel” value ([5]; complex 5.0 µM, pH 6.0) of the same compound?
Answer: only cleaved DNA was observed

Question: What about the “DNA forms observed on gel” value ([5]; complex 5.0 µM, pH 7.0) of the same compound?
Answer: only cleaved DNA was observed

Question: And the “DNA forms observed on gel” value ([5]; complex 5.0 µM, pH 8.0)?
Answer: both supercoiled circular DNA and cleaved DNA were observed

Question: What about the DNA cleaving activity ([5]; concentration as low as 1.0 µM) of the same compound?
Answer: very strong DNA cleaving activity

Reference: patent EP1394169A1, “Organometallic complex” (Hwu, Jih-Ru, priority 2002, dated 2004)
